Results as given in BindingDB's records for doi:10.1021/acsmedchemlett.6b00363 (Philipps University Marburg, 2017).

How the values were obtained:
[1] = molecular target: Beta-1 adrenergic receptor (Homo sapiens, UniProt P08588); test: Displacement of [3H](-)CGP12177 from human beta1-AR expressed in CHOK1 cells after 2 hrs by TopCount microscintillation counting method
[2] = molecular target: Beta-2 adrenergic receptor (Homo sapiens, UniProt P07550); test: Displacement of [3H](-)CGP12177 from human beta2-AR expressed in CHOK1 cells after 2 hrs by TopCount microscintillation counting method
Sequence of Beta-2 adrenergic receptor (P07550 whole entry): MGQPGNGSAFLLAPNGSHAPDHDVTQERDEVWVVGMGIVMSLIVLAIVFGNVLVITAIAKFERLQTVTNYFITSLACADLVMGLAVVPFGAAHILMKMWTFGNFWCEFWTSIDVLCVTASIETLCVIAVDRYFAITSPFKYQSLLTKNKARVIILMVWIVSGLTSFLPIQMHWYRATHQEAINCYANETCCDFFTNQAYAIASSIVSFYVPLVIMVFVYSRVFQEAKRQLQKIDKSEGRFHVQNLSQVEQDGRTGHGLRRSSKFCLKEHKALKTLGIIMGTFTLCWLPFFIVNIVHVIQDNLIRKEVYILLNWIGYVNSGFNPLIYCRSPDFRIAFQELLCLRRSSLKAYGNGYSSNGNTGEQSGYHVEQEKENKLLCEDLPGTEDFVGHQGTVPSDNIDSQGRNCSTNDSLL

Sequence of Beta-1 adrenergic receptor (P08588 whole entry): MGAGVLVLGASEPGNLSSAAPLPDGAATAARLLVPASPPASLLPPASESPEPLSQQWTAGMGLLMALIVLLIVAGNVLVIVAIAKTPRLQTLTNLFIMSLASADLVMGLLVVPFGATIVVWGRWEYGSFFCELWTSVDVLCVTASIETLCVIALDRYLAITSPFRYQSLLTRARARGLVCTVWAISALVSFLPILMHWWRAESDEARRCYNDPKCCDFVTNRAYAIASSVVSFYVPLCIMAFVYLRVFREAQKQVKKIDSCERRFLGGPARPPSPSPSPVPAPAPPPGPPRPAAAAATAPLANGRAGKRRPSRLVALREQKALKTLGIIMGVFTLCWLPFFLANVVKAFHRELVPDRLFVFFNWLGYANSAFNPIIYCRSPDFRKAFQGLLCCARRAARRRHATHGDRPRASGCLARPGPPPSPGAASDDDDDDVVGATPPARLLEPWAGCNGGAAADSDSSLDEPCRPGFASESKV

SMILES	Kd [1] [µM]	Kd [2] [µM]
Cc1cc(O)c(CN(C)C)c2c1C(=O)/C(=C/c1ccccc1)O2	46.8	25.1
Cc1cc(O)c(CN2CCCC2)c2c1C(=O)/C(=C/c1cc3ccccc3o1)O2	38	14.5
CCCCN(C)Cc1c(O)cc(C)c2c1O/C(=C\c1cc3cc(Br)ccc3o1)C2=O		17.8

Next, values leading:

Kd [1] [µM]	Kd [2] [µM]	SMILES
97.7		CN(C)CCOc1ccc2ccccc2c1C=O
257		C[n+]1c(/C=C/Nc2ccccc2)sc2ccccc21
